The results in this text go back to US8232289B2, “Spiropiperidine compounds as ORL-1 receptor antagonists” (Eli Lilly and Company, priority 2009, dated 2012).

Experiment [1] concerns the target T1, cloned human ORL1/nociceptin receptors (Homo sapiens, UniProt P41146).
T1 construct: expressed in transfected cells
The experiment is described as follows: Functional blockade of agonist-mediated G-protein activation, GTP-γ-[35S] binding. Type of experiment: biochemical. The text has this:
Agonist-mediated stimulation of G-protein coupled receptors results in the activation of membrane associated Gαβγ-protein heterotrimer complexes, and represents the first step in the transduction of extracellular signals to modification of intracellular pathways. The first step in activation of receptor-mediated activation of Gαβγ-proteins heterotrimer is the exchange of Gα subunit bound guanosine diphoshpate (GDP) for guanosine triphosphate (GTP). The binding of GTP to the Gα subunit causes dissociation of the heterotrimer subunits, Gβ and Gγ, resulting in the modulation of several intracellular signaling cascades. Measurement of receptor-mediated G-protein activation can be measured using the non-hydrolyzable radiolabeled analog of GTP, GTP-γ-[35S]. Utilizing this methodology, antagonist affinity (Kb) is measured in membranes expressing cloned human ORL1/nociceptin receptors using a GTP-γ-[35S] binding assay according to previously described protocols with minor modifications (DeLapp et al., J Pharmacol Exp Ther. 1999 May; 289(2):946-55; Ozaki et al., Eur J Pharmacol. 2000 Aug. 18; 402(1-2):45-53). Assays are conducted in a 200-μl volume with the following buffer composition: 100 mM NaCl, 20 mM HEPES, 5 mM MgCl2, 1 mM EDTA, 0.1% BSA, 3 μM GDP, 0.5 nM [^35S]GTPγS. ORL1 receptor membrane suspension is added at a concentration of 20 μg protein per well and receptor stimulation is achieved using 300 nM nociceptin/OFQ. Wheat germ agglutinin coated SPA beads (Amersham, Arlington Hts., IL) are added at 1 mg per well to detect membrane-bound [^35S]GTPγS. Plates are sealed and incubated for 2 hr. at room temperature. Plates are then placed at 4° C. overnight to allow the SPA beads to settle and then counted in a Wallac Microbeta. Specific [^35S]GTPγS binding is determined as the difference in CPM observed in the absence and presence of 10 μM unlabeled GTPγS. Data are plotted as the percent of specific [^35S]GTPγS bound. Curves are plotted as the percent of specific binding and IC50 values are determined using a sigmoidal dose response curve with variable slope. […]

The next experiment deals with Cl− channel. In words: Radioligand binding selectivity, Cl− channel. The text has this: (§1) Similarly, Ki for the mu, kappa and delta opioids, serotonin, dopamine, adrenergic, mucarinic, and histamine receptors, as well as binding to the norepinephrine transporter, sodium channel, chloride channel, and calcium channel may be determined using membranes expressing the desired receptor/transporter/channels and appropriate corresponding radioligand competitor molecules.

Experiment [2] has as its target Ca+2 channel (verapamil site). The experiment is described as follows: Radioligand binding selectivity, Ca+2 channel (verapamil site).
Description: as §1

A further experiment has as its target 5-HT2A (Homo sapiens, UniProt P28223). In words: Radioligand binding selectivity, 5-HT2A.
Description: as §1

The target in a further experiment is 5-HT2C (Homo sapiens, UniProt P28335). The experiment is described as follows: Radioligand binding selectivity, 5-HT2C.
Description: as §1

The target of the next experiment is D2 Dopamine (Homo sapiens, UniProt P14416). In words: Radioligand binding selectivity, D2 Dopamine.
Description: as §1

Another experiment concerns the target Adrenergic Beta2 (Homo sapiens, UniProt P07550). The experiment is described as follows: Radioligand binding selectivity, Adrenergic Beta2.
Description: as §1

In a further experiment the target is Adrenergic Beta1 (Homo sapiens, UniProt P08588). The experiment is described as follows: Radioligand binding selectivity, Adrenergic Beta1.
Description: as §1

Experiment [3] has as its target Norepinephrine transporter (Homo sapiens, UniProt P23975). The experiment is described as follows: Radioligand binding selectivity, Norepinephrine transporter.
Description: as §1

In the next experiment the target is Adenosine A3 (Homo sapiens, UniProt P0DMS8). The experiment is described as follows: Radioligand binding selectivity, Adenosine A3.
The target of another experiment is Ca+2 channel (DHP site). The experiment is described as follows: Radioligand binding selectivity, Ca+2 channel (DHP site).
Description: as §1

The next experiment addresses Adrenergic Alpha1. The experiment is described as follows: Radioligand binding selectivity, Adrenergic Alpha1.
Description: as §1

The target of a further experiment is 5-HT5 (Homo sapiens, UniProt P47898). The experiment is described as follows: Radioligand binding selectivity, 5-HT5.
Description: as §1

The target in another experiment is 5-HT1E (Homo sapiens, UniProt P28566). The experiment is described as follows: Radioligand binding selectivity, 5-HT1E.
Description: as §1

Another experiment has as its target 5-HT1A (Homo sapiens, UniProt P08908). The experiment is described as follows: Radioligand binding selectivity, 5-HT1A.
Description: as §1

The next experiment has as its target Muscarinic M2 (Homo sapiens, UniProt P08172). The experiment is described as follows: Radioligand binding selectivity, Muscarinic M2.
Description: as §1

In a further experiment the target is 5-HT1D (Homo sapiens, UniProt P28221). In words: Radioligand binding selectivity, 5-HT1D.
Description: as §1

A further experiment deals with D1 Dopamine (Homo sapiens, UniProt P21728). The experiment is described as follows: Radioligand binding selectivity, D1 Dopamine.
Description: as §1

For a further experiment, the target named is Histamine H1 (Homo sapiens, UniProt P35367). In words: Radioligand binding selectivity, Histamine H1.
Description: as §1

The target in the next experiment is Na+ channel. The experiment is described as follows: Radioligand binding selectivity, Na+ channel.
Description: as §1

Experiment [4] has as its system 129S6 wild type and nociceptin/ORL1 receptor knockout mice. In words: mFST in wild type and ORL-1 knockout mice. The experiment is classed as in vivo. The text has this: mFST is an established in vivo assay for antidepressant activity (Li et al. J Pharmacol Exp Ther. 319(1):254-9, 2006.). […] The mFST was used to evaluate potential antidepressant-like activity of novel nociceptin/ORL1 antagonists according to previously published methods (Li et al. J Pharmacol Exp Ther. 319(1):254-9, 2006.). Briefly, male NIH-Swiss mice (Harlan Sprague-Dawley, Indianapolis, Ind.) weighing between 25-30 g are used. Group housed animals are removed from the vivarium to the testing area in their own cages and allowed to adapt to the new environment for at least 1 hour before testing. Alternatively, male 129S6 wild type and nociceptin/ORL1 receptor knockout mice were used to confirm dependence of the response to compound was nociceptin/ORL1 receptor dependent. All compounds are prepared in 20% Captisol, 25 mM phosphate buffer, pH 2.0 on the day of use. Mice are placed in a cylinder (diameter: 10 cm; height: 25 cm) filled with 6 cm of water (22-25° C.) for 6 min. The duration of immobility during the last 4 min. of the 6 min. period of the test was scored. A mouse is recorded as immobile when floating motionless or making only those movements necessary to keep its head above water.
Yet further, these effects of reduced immobilization times are not observed when ORL-1 knockout mice, a strain of mice engineered to lack the ORL-1 receptor, are used, showing that the effect is indeed mediated by the ORL-1 receptor.

The structures appear in SMILES notation. Read-outs that look alike come from different tables or passages of the source. A value given as a limit tells only on which side of the number the result lay.

Sequence of Histamine H1 (P35367 whole entry): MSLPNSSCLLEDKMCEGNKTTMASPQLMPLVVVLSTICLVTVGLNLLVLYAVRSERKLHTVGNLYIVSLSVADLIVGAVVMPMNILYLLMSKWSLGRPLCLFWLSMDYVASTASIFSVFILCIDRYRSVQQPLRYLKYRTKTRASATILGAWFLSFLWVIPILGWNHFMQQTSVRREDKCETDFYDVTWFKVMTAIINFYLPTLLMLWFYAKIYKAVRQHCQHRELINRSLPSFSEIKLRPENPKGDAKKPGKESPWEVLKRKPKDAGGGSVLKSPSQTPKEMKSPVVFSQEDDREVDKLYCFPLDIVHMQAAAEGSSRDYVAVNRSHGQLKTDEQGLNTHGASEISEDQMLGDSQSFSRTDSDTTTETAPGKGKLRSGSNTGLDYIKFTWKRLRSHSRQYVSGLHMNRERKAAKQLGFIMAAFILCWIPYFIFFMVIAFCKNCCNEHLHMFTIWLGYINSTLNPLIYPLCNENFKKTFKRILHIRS
Sequence of Muscarinic M2 (P08172 whole entry): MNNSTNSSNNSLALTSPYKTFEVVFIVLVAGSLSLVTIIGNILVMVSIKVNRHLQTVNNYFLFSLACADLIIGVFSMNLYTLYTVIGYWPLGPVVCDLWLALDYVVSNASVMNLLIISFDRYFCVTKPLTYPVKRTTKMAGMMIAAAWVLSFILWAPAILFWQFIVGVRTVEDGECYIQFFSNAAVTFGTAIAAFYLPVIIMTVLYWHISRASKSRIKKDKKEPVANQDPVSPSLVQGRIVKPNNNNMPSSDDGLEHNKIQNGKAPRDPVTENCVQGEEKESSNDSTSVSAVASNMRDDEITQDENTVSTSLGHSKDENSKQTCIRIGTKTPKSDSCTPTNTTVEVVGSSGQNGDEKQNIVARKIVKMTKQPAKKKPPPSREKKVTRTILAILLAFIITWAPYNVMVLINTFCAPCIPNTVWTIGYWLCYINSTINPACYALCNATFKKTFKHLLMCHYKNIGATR
Sequence of Adrenergic Beta1 (P08588 whole entry): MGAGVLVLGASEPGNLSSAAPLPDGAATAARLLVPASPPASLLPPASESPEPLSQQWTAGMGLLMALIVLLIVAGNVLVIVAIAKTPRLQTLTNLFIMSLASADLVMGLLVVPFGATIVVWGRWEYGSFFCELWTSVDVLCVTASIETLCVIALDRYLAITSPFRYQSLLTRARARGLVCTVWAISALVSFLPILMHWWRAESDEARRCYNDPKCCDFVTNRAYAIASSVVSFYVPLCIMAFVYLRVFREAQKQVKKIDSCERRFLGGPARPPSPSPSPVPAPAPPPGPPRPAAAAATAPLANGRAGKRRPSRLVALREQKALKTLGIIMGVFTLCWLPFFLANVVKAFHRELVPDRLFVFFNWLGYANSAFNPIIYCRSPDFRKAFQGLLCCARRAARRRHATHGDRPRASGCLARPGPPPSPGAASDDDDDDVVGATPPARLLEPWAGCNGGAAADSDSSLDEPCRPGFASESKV
Sequence of Norepinephrine transporter (P23975 whole entry, species assumed): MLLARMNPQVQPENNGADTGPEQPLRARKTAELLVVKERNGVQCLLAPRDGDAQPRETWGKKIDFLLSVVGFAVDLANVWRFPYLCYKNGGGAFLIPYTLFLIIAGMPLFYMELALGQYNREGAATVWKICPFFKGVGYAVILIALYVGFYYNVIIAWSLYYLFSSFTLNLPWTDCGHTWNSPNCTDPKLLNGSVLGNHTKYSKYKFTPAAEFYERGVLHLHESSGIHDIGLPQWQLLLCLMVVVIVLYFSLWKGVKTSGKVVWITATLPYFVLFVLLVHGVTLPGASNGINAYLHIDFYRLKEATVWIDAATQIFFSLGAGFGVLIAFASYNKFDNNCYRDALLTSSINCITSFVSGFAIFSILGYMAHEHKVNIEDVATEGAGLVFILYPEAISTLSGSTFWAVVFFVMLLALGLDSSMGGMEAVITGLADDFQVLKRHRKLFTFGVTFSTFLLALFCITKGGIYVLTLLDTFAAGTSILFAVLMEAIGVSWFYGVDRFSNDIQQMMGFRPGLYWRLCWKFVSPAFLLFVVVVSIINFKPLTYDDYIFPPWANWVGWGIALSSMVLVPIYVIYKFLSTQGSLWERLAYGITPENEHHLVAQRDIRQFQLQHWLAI
Sequence of Adrenergic Beta2 (P07550 whole entry): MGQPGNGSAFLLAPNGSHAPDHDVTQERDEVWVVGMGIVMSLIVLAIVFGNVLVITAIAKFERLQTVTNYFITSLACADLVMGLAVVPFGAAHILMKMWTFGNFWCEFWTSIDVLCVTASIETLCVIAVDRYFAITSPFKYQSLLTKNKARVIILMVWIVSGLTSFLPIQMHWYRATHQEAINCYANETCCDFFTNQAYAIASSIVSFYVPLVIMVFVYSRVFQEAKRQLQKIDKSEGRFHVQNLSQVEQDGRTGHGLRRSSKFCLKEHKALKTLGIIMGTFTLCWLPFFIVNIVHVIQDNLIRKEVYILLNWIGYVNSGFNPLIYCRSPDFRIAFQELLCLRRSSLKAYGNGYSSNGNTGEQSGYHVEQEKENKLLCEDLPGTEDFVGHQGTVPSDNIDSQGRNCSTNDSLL
Sequence of 5-HT1D (P28221 whole entry, species assumed): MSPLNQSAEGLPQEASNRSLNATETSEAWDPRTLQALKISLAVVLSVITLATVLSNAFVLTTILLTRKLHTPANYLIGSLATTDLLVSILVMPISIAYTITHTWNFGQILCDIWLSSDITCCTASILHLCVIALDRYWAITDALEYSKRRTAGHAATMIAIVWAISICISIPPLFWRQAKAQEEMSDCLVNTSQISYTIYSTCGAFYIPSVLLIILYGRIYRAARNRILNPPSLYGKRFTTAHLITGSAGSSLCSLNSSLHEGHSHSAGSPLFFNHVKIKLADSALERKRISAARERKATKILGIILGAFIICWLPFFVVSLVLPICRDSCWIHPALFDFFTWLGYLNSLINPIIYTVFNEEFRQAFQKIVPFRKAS
Sequence of Adenosine A3 (P0DMS8 whole entry): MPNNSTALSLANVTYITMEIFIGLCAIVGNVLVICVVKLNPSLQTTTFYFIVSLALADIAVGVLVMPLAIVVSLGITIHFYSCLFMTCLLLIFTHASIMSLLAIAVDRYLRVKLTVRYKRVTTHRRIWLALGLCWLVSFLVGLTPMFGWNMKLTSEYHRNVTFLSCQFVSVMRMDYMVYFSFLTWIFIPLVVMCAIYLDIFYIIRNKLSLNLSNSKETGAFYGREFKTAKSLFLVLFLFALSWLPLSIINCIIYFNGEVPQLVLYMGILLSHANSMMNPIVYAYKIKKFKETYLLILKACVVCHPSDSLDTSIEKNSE
Sequence of 5-HT2C (P28335 33-458, species assumed): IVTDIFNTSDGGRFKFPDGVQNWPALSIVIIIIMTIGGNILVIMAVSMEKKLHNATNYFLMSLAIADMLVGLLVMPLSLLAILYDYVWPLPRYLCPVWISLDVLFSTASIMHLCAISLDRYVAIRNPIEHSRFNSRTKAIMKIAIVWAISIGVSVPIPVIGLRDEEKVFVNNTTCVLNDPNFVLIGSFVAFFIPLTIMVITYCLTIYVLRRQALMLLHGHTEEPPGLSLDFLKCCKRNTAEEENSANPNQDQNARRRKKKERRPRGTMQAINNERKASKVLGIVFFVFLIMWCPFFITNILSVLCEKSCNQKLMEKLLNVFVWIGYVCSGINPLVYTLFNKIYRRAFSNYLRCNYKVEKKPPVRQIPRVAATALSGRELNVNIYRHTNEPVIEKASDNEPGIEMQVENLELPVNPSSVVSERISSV
Sequence of 5-HT2A (P28223 whole entry, species assumed): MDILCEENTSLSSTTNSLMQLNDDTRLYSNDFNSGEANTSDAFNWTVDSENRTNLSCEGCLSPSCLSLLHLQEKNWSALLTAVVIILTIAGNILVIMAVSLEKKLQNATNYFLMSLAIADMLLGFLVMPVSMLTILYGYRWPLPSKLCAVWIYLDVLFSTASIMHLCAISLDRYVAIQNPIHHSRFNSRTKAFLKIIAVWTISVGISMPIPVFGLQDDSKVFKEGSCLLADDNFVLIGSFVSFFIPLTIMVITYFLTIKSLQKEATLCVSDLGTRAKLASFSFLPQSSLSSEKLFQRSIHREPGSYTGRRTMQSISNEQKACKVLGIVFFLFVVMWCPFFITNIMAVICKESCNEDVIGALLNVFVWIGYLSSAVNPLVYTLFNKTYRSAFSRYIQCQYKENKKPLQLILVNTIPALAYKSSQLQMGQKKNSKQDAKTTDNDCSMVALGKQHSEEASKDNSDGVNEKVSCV
Sequence of 5-HT1A (P08908 whole entry, species assumed): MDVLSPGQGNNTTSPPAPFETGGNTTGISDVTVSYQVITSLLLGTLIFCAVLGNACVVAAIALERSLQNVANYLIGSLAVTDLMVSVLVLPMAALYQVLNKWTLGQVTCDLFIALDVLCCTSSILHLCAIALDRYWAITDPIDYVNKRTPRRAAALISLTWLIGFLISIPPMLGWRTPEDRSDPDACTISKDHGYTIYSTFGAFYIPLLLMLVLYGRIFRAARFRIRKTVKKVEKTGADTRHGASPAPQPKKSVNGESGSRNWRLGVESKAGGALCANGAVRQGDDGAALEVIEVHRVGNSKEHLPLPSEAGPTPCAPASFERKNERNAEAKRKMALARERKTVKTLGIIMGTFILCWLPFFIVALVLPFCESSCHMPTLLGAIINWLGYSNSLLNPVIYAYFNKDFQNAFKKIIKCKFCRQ
T1 sequence (P41146 whole entry): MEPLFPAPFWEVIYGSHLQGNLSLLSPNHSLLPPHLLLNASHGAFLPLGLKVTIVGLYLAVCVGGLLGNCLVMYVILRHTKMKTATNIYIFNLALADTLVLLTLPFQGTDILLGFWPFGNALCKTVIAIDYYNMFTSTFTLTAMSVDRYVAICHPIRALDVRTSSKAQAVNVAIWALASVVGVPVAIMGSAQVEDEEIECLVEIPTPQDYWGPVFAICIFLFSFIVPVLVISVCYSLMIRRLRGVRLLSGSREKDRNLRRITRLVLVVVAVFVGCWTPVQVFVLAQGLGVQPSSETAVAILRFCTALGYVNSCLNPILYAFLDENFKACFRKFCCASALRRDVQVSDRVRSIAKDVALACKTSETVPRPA

In the case of `Cc1nn(-c2ncccc2Cn2cccn2)cc1CN1CCC2(CC1)OCC(F)(F)c1cc(Cl)sc12.O=C(O)C(O)C(O)C(=O)O` [Example 23, 2-Chloro-4,4-difluoro-1′-[[3-methyl-1-[3-(pyrazol-1-ylmethyl)-2-pyridyl]pyrazol-4-yl]methyl]spiro[5H-thieno[2,3-c]pyran-7,4′-piperidine] (L)-Tartrate], the Kb in experiment [1] was found to be 0.00152 µM.
Take `O=C(O)C(O)C(O)C(=O)O.OCc1nn(-c2ncccc2F)cc1CN1CCC2(CC1)OCC(F)(F)c1cc(Cl)sc12` [Example 53, [4-[(2-Chloro-4,4-difluoro-spiro[5H-thieno[2,3-c]pyran-7,4′-piperidine]-1′-yl)methyl]-1-(3-fluoro-2-pyridyl)pyrazol-3-yl]methanol (L)-Tartrate]: the Ki is over 0.5 µM on Cl− channel; over 5 µM in experiment [2]; over 5 µM on 5-HT2A; over 5.65 µM at 5-HT2C; over 5 µM on D2 Dopamine; over 5 µM at Adrenergic Beta2. Besides, the Ki on Adrenergic Beta1 is over 5 µM; in experiment [3], over 0.5 µM; on Adenosine A3, over 5 µM; at Ca+2 channel (DHP site), over 5 µM; on Adrenergic Alpha1 it was over 5 µM; on 5-HT5, over 9.09 µM. Besides, the inhibition constant Ki on 5-HT1E is over 5.37 µM; at 5-HT1A it was over 3.18 µM; at Muscarinic M2, over 5 µM; at 5-HT1D, over 8.55 µM; at D1 Dopamine, over 5 µM; on Histamine H1, over 5 µM. This molecule also registered a Ki on Na+ channel of over 0.5 µM. The Kb in experiment [1] came to 0.00062 µM.
Regarding `Cc1nn(-c2ncccc2CO)cc1CN1CCC2(CC1)OCC(F)(F)c1cc(Cl)sc12` [Example 62, [2-[4-[(2-Chloro-4,4-difluoro-spiro[5H-thieno[2,3-c]pyran-7,4′-piperidine]-1′-yl)methyl]-3-methyl-pyrazol-1-yl]-3-pyridyl]methanol], the Ki is over 0.5 µM at Cl− channel; over 0.5 µM in experiment [2]; over 5 µM at 5-HT2A (read-out: Ki 5-HT2A); over 5.65 µM on 5-HT2C (read-out: Ki 5-HT2C); over 5 µM on D2 Dopamine (read-out: Ki D2 Dopamine); over 5 µM at Adrenergic Beta2. In addition, the Ki was over 5 µM on Adrenergic Beta1; over 0.5 µM in experiment [3] (read-out: Ki Norepinephrine transporter); over 5 µM on Adenosine A3; over 5 µM on Ca+2 channel (DHP site); over 5 µM on Adrenergic Alpha1; over 9.09 µM at 5-HT5 (read-out: Ki 5-HT5). Besides, the Ki at 5-HT1E (read-out: Ki 5-HT1E) is over 5.37 µM; at 5-HT1A (read-out: Ki 5-HT1A), over 3.18 µM; on Muscarinic M2 (read-out: Ki Muscarinic M2), over 0.5 µM; at 5-HT1D (read-out: Ki 5-HT1D) it was over 8.55 µM; at D1 Dopamine (read-out: Ki D1 Dopamine), over 5 µM; at Histamine H1, over 5 µM. The molecule further returned an inhibition constant Ki at Na+ channel of 0.235 µM. Also, the “effect on immobilization time” value is “no effect” in experiment [4] (ORL-1 knockout mice) and “significantly reduce the immobilization time” in experiment [4] (wild type mice).
